In US20170105981A1, “METHODS FOR STABILIZING HYPOXIA INDUCIBLE FACTOR-2 ALPHA AS A METHOD FOR TREATING CANCER” (The Ohio State Innovation Foundation, priority 2011, published 2017):

How the values were obtained:
[1] = system: phosphoglycerate kinase (PGK) mRNA; experiment: PGK mRNA expression (qPCR) in wild type murine embryonic fibroblasts; type: cell-based; conditions: hypoxic conditions (1% O2), 1, 10 and 100 μM, vs. hypoxia control, FIG. 2A
Method: Total RNA was isolated from tissues and cells by using TRIzol™ Reagent (Invitrogen) and the RNeasy kit (Qiagen), respectively. 1 μg RNA was used for reverse transcription using SuperScript II First-Strand Synthersis System (Invitrogen). cDNA's were amplified in a SYR Green or TaqMan Universal Master Mix (Applied Biosystems). Quantitative PCR (qPCR) was performed on ABI Prism 7700 sequence detection system. PCR conditions are: 10 min at 95° C., 40 cycles of 15 seconds at 95° C. and 1 minute at 60° C. The relative amount of mRNA was calculated after normalization to β-actin.
Cells were cultured in DMEM (#11965-092, Invitrogen) supplemented with 10% fetal bovine serum (Invitrogen), 100 U/mL penicillin and […] streptomycin. For glucose deprivation, DMEM without glucose (#11966-025, Invitrogen) was used.
Mouse embryonic fibroblasts (MEFs) were isolated from E12.5 embryos and immortalized by stable transfection with SV40 large T antigen.

[2] = system: endothelial cell marker CD31; experiment: Tumor vascularity by CD31 immunohistochemistry in melanoma-bearing mice; type: in vivo; conditions: mice treated with the control antibody; p=0.022; FIG. 14B
HIF-2α = experiment: Immunoblot for HIF-2α in murine bone marrow-derived macrophages; type: cell-based; conditions: murine bone marrow-derived macrophages treated 18 hours; p=0.001; FIG. 11A
Method: (§1) To generate bone marrow-derived macrophages (BDMs), femoral bone marrow was isolated and progenitor cells were plated in RPMI-1640 supplemented with 10% FBS, 1% PSA, 10 μg/mL of polymyxin B, and 20 ng/mL of recombinant murine M-CSF. Cells were cultured for 5 days with the addition of fresh M-CSF every other day. Differentiated BDM were serum-starved for 2 hours and then treated with 100 ng/mL of murine GM-CSF and/or 25 μM the disclosed HIF-2α stabilizer in RPMI-1640 containing 1% FBS and 10 μg/mL polymixin B. Culture supernatants were collected after 72 hours and assayed for VEGF and sVEGFR-1 content by ELISA (R&D Systems).
(§2) In order to confirm the selective upregulation of HIF-2α by the disclosed HIF-2α stabilizer, murine bone marrow-derived macrophages were treated with the disclosed HIF-2α stabilizer for 18 hours, and cells were then lysed and immunoblotted for HIF-1α and HIF-2α.

[3] = system: B16F10 murine melanoma cells; experiment: Murine melanoma tumor model (B16F10 in C57BL/6 mice); type: in vivo; conditions: for tumor growth: FIG. 14A
Method: Mice were injected with 1×10^5 B16F10 murine melanoma cells murine subcutaneously on the left flank. Once tumors become palpable (approximately 5 days), mice were randomly allocated to receive treatment with either: 20% polyethylene glycol (PEG) in 5% […] (vehicle control for the disclosed HIF-2α stabilizer) and PBS (vehicle control for GM-CSF), 20% PEG and GM-CSF (100 ng per mouse in a 50 μL volume), the disclosed HIF-2α stabilizer (17.5 mg/kg in a 100 μL volume) and PBS, or the disclosed HIF-2α stabilizer and GM-CSF (same doses). The PBS and GM-CSF were administered intratumorally, while the 20% PEG and the disclosed HIF-2α stabilizer were administered intraperitoneally. Mice were treated 3 times per week until tumors reached a size of 20 mm in any dimension (approximately 2.5 weeks), at which point mice were euthanized, in accordance with institutional policy. Tumor diameters were measured 3 times per week with calipers, and tumor volumes were calculated as follows: Tumor volume=0.5×[(large diameter)×(small diameter)^2].
6-8-week-old C57BL/6 mice were injected with 1×10^5 B16F10 murine melanoma cells murine subcutaneously on the left flank. Once tumors become palpable (approximately 5 days), mice were randomly allocated to receive treatment with either: 20% PEG-400 in 5% sucrose (vehicle for disclosed HIF-2α stabilizer) and PBS (vehicle for GM-CSF), 20% PEG-400 and GM-CSF (100 ng per mouse in a 50 μL volume), disclosed HIF-2α stabilizer (17.5 mg/kg mouse weight in a 100 μL volume) and PBS, or the disclosed HIF-2α stabilizer and GM-CSF (same concentrations). The disclosed HIF-2α stabilizer (or the vehicle control) was administered intraperitoneally, while GM-CSF (or the vehicle control) was administered intratumorally. Mice were treated […] 3 times per week until tumors reached a size of 20 mm in any dimension (approximately 2.5 weeks), at which point mice were be euthanized, in accordance with institutional policy. Tumor diameters were measured 3 times per week with calipers, and tumor volumes will be calculated as follows: Tumor volume=0.5×[(large diameter)×(small diameter)^2]. For experiments analyzing the effect of neutralizing sVEGFR-1 in combination with disclosed HIF-2α stabilizer treatment, mice were treated intraperitoneally 3×/week with either disclosed HIF-2α stabilizer or vehicle control, and intratumorally with either 4 μg anti-VEGFR-1 neutralizing antibody (R&D Systems) or 4 μg polyclonal goat IgG isotype control (Santa Cruz Biotechnology) in a 50 μL volume. All protocols were approved by the Ohio State University Animal Care and Use Committee, and mice were treated in accordance with institutional guidelines for animal care.
The ANOVA test was used to compare independent measurements between multiple treatment groups. The data was log-transformed to normalize the variance across groups. P-values were adjusted using the Holm's procedure to conserve the type I error at 0.05 due to the multiple comparisons. For tumor growth data, changes in tumor volume over time were assessed via a longitudinal model. Tumor values were log-transformed, and estimated slopes (changes in tumor volume over time) were calculated with 95% confidence intervals. Estimated differences in tumor volume were calculated by a random-effects regression of the longitudinal data. For all analyses, p≦0.05 was considered statistically significant.
6-8-week-old C57BL/6 mice or SCID mice were injected with 1×10^5 B16F10 murine melanoma cells or 1×10^6 A375 human melanoma cells, respectively, subcutaneously on the left flank. […]

HIF-1α = experiment: Immunoblot for HIF-1α in murine bone marrow-derived macrophages; type: cell-based; conditions: murine bone marrow-derived macrophages treated 18 hours; p=0.105; FIG. 11A
Method: as §1, §2

O=C(O)CNC(=O)c1ncc(-c2cccc(F)c2)cc1O [disclosed HIF-2α stabilizer, {[5-(3-Fluorophenyl)-3-hydroxypyridine-2-carbonyl]amino} acetic acid]
PGK mRNA (relative amount) [1]: dramatic reduction
tumor vascularity (CD31) [2]: decreased tumor vascularity
HIF-2α protein (HIF-2α): increase
tumor growth / tumor volume ([3]; B16F10 melanoma, stabilizer 17 mg/kg I.P., GM-CSF I.T., vs PBS control, FIG. 3): reduces tumor growth
increase in median survival (time to a tumor diameter of 20 mm) ([3]; B16F10 melanoma-bearing mice, stabilizer alone, p=0.023, FIG. 12B): 3 days
average tumor volumes vs vehicle controls ([3]; day 16 of treatment, 3×/week, GM-CSF 100 ng/mouse intratumoral, stabilizer 17.5 mg/kg intraperitoneal, each p<0.001): significantly smaller
tumor growth ([3]; mice also treated with anti-sVEGFR-1 neutralizing antibody, p=0.245): no effect
tumor growth ([3]; mice treated with isotype control antibody, p<0.001): decreased tumor growth
HIF-1α protein (HIF-1α): no corresponding increase
